Measurements taken from US20230340012A1, “NATURAL AND SYNTHETIC COMPOUNDS FOR TREATING CANCER AND OTHER DISEASES” (PACIFIC ARROW LIMITED, priority 2009, published 2023).

Test system: cancer cells
Experiment: MTT cytotoxic assay of esterification products (Cytotoxicity activity)
Type: cell-based, human
Procedure, shortened: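 Cytotoxicity was read by MTT (Carmichael method, modified), with cells seeded 24 h ahead of treatment. Sixteen human cancer lines spanning bone, lung, bladder, ovary, colon, pancreas, prostate, skin, mouth, kidney, breast, liver, brain, leukemia and cervix were used. Test samples were acyl chloride esterification products of triterpenes, as mixtures or HPLC-purified compounds.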

[1] = MTT cytotoxic assay, isolated esterification products of E4A
[2] = E4A esterified with Cinnamoyl chloride (Cin = Cinnamoyl), compounds isolated with HPLC
[3] = esterification products isolated with HPLC, graded strong / moderate / weak
[4] = E4A esterified with Crotonoyl chloride (Cro = Crotonoyl), compounds isolated with HPLC
[5] = E4A esterified with Acetyl chloride (Acy = Acetyl), compounds isolated with HPLC
[6] = esterification products of E4A—Tig—N with senecioyl chloride
[7] = E4A esterified with 2-propenoyl chloride (Ppe = Propenoyl), compounds isolated with HPLC
[8] = E4A esterified with Propionyl chloride (Ppi = Propionyl), compounds isolated with HPLC
[9] = E4A esterified with benzoyl chloride (Ben = benzoyl), compounds isolated with HPLC
[10] = esterification products of core compound E4A with (2E)-2-pentenoyl chloride (2pe = 2-pentenoyl)
[11] = esterification products of core compound E4A with Butyryl chloride (But = Butyryl)
[12] = esterification products of core compound E4A with Decanoyl chloride (Dec = Decanoyl)
[13] = esterification products of core compound E4A with Isobutyryl chloride (Iso = Isobutyryl)
[14] = esterification products of core compound E4A with Myristoyl chloride (Myr = Myristoyl)
[15] = esterification products of core compound E4A with Octanoyl chloride (Oct = Octanoyl)

CC(C)=CC(=O)OCC1(C)C(OC(=O)C=C(C)C)CCC2(C)C1CCC1(C)C2CC=C2C3CC(C)(C)C(O)C(O)C3(CO)C(O)CC21C (stereo not shown) [Compound B31]
Cytotoxicity activity [1]: moderate

CCC(CC)C(=O)OCC1(C)C(O)CCC2(C)C1CCC1(C)C2CC=C2C3CC(C)(C)C(O)C(O)C3(CO)C(OC(=O)C(CC)CC)CC21C (stereo not shown) [Compound E32]
Cytotoxicity activity [1]: moderate

CC1(C)CC2C3=CCC4C5(C)CCC(O)C(C)(CO)C5CCC4(C)C3(C)CC(O)C2(COC(=O)C=Cc2ccccc2)C(OC(=O)C=Cc2ccccc2)C1O (stereo not shown) [Compound J26]
Cytotoxicity activity [2]: moderate

CC=C(C)C(=O)OCC1(C)C(O)CCC2(C)C1CCC1(C)C2CC=C2C3CC(C)(C)C(O)C(O)C3(COC(=O)C(C)=CC)C(O)CC21C (stereo not shown) [Tig—Ang—1]
Cytotoxicity activity [3]: strong

CC1(C)CC2C3=CCC4C5(C)CCC(O)C(C)(COC(=O)C=Cc6ccccc6)C5CCC4(C)C3(C)CC(O)C2(CO)C(OC(=O)C=Cc2ccccc2)C1O (stereo not shown) [Compound J30]
Cytotoxicity activity [2]: moderate

CC(C)=CC(=O)OCC1(C)C(OC(=O)C=C(C)C)CCC2(C)C1CCC1(C)C2CC=C2C3CC(C)(C)C(OC(=O)C=C(C)C)C(OC(=O)C=C(C)C)C3(COC(=O)C=C(C)C)C(O)CC21C (stereo not shown) [Compound B15]
Cytotoxicity activity [1]: weak

CC=C(C)C(=O)OCC1(C)C(O)CCC2(C)C1CCC1(C)C2CC=C2C3CC(C)(C)C(O)C(OC(=O)C=Cc4ccccc4)C3(COC(=O)C=Cc3ccccc3)C(O)CC21C (stereo not shown) [Tig—Cin—3]
Cytotoxicity activity [3]: moderate

C=CCCC(=O)OCC1(C)C(OC(=O)CCC=C)CCC2(C)C1CCC1(C)C2CC=C2C3CC(C)(C)C(OC(=O)CCC=C)C(OC(=O)CCC=C)C3(COC(=O)CCC=C)C(OC(=O)CCC=C)CC21C (stereo not shown) [Compound C19]
Cytotoxicity activity [1]: none

CC=CC(=O)OCC1(C)C(OC(=O)C=CC)CCC2(C)C1CCC1(C)C2CC=C2C3CC(C)(C)C(O)C(O)C3(COC(=O)C=CC)C(O)CC21C (stereo not shown) [Compound I6]
Cytotoxicity activity [4]: moderate

CC=C(C)C(=O)OCC1(C)C(OC(=O)C(C)=CC)CCC2(C)C1CCC1(C)C2CC=C2C3CC(C)(C)C(O)C(O)C3(COC(=O)C(C)=CC)C(OC(=O)C(C)=CC)CC21C (stereo not shown) [Compound A10]
Cytotoxicity activity [1]: weak

CC=C(C)C(=O)OCC1(C)C(O)CCC2(C)C1CCC1(C)C2CC=C2C3CC(C)(C)C(OC(=O)C(C)=CC)C(O)C3(COC(=O)C(C)=CC)C(O)CC21C (stereo not shown) [Compound A4]
Cytotoxicity activity [1]: moderate

CC(=O)OCC1(C)C(O)CCC2(C)C1CCC1(C)C2CC=C2C3CC(C)(C)C(O)C(OC(C)=O)C3(CO)C(O)CC21C (stereo not shown) [Compound H30]
Cytotoxicity activity [5]: moderate

CC(=O)OCC12C(O)CC3(C)C(=CCC4C5(C)CCC(O)C(C)(CO)C5CCC43C)C1CC(C)(C)C(OC(C)=O)C2O (stereo not shown) [Compound H25]
Cytotoxicity activity [5]: moderate

CC=C(C)C(=O)OCC1(C)C(OC(=O)C=C(C)C)CCC2(C)C1CCC1(C)C2CC=C2C3CC(C)(C)C(O)C(O)C3(COC(=O)C=C(C)C)C(O)CC21C (stereo not shown) [Tig—Sen—4]
Cytotoxicity activity [6]: moderate

CC=C(C)C(=O)OCC12C(O)CC3(C)C(=CCC4C5(C)CCC(O)C(C)(CO)C5CCC43C)C1CC(C)(C)C(O)C2OC(=O)C(C)=CC (stereo not shown) [Compound A26]
Cytotoxicity activity [1]: moderate

CC=CC(=O)OCC12C(O)CC3(C)C(=CCC4C5(C)CCC(OC(=O)C=CC)C(C)(CO)C5CCC43C)C1CC(C)(C)C(O)C2O (stereo not shown) [Compound I27]
Cytotoxicity activity [4]: moderate

C=CCCC(=O)OCC1(C)C(OC(=O)CCC=C)CCC2(C)C1CCC1(C)C2CC=C2C3CC(C)(C)C(O)C(O)C3(COC(=O)CCC=C)C(OC(=O)CCC=C)CC21C (stereo not shown) [Compound C10]
Cytotoxicity activity [1]: weak

CC=C(C)C(=O)OCC1(C)C(O)CCC2(C)C1CCC1(C)C2CC=C2C3CC(C)(C)C(OC(=O)C=C(C)C)C(O)C3(CO)C(O)CC21C (stereo not shown) [Tig—Sen—5]
Cytotoxicity activity [6]: moderate

CC(C)=CC(=O)OCC1(C)C(O)CCC2(C)C1CCC1(C)C2CC=C2C3CC(C)(C)C(OC(=O)C=C(C)C)C(OC(=O)C=C(C)C)C3(COC(=O)C=C(C)C)C(O)CC21C (stereo not shown) [Compound B8]
Cytotoxicity activity [1]: weak

CC1(C)CC2C3=CCC4C5(C)CCC(O)C(C)(COC(=O)c6ccccc6)C5CCC4(C)C3(C)CC(O)C2(CO)C(OC(=O)c2ccccc2)C1OC(=O)c1ccccc1 (stereo not shown) [Compound K21]
Cytotoxicity activity [7]: moderate
Cytotoxicity activity [8]: moderate
Cytotoxicity activity [9]: moderate
Cytotoxicity activity [10]: moderate
Cytotoxicity activity [11]: moderate
Cytotoxicity activity [12]: moderate
Cytotoxicity activity [13]: moderate
Cytotoxicity activity [14]: moderate
Cytotoxicity activity [15]: moderate

CC(C)=CC(=O)OCC1(C)C(O)CCC2(C)C1CCC1(C)C2CC=C2C3CC(C)(C)C(O)C(OC(=O)C=C(C)C)C3(COC(=O)C=C(C)C)C(O)CC21C (stereo not shown) [Compound B5]
Cytotoxicity activity [1]: moderate

CC=C(C)C(=O)OCC1(C)C(O)CCC2(C)C1CCC1(C)C2CC=C2C3CC(C)(C)C(OC(C)=O)C(O)C3(COC(=O)C(C)=CC)C(O)CC21C (stereo not shown) [Tig—R—Acy—2]
Cytotoxicity activity [3]: moderate

CC=C(C)C(=O)OCC12C(O)CC3(C)C(=CCC4C5(C)CCC(OC(=O)C(C)=CC)C(C)(CO)C5CCC43C)C1CC(C)(C)C(O)C2O (stereo not shown) [Compound A27]
Cytotoxicity activity [1]: moderate

CCCCCC(=O)OC1C(OC(=O)CCCCC)C2(CO)C(O)CC3(C)C(=CCC4C5(C)CCC(O)C(C)(CO)C5CCC43C)C2CC1(C)C (stereo not shown) [Compound D24]
Cytotoxicity activity [1]: moderate

CC1(C)CC2C3=CCC4C5(C)CCC(OC(=O)C=Cc6ccccc6)C(C)(CO)C5CCC4(C)C3(C)CC(O)C2(CO)C(OC(=O)C=Cc2ccccc2)C1OC(=O)C=Cc1ccccc1 (stereo not shown) [Compound J23]
Cytotoxicity activity [2]: moderate

CC(C)=CC(=O)OCC1(C)C(OC(=O)C=C(C)C)CCC2(C)C1CCC1(C)C2CC=C2C3CC(C)(C)C(OC(=O)C=C(C)C)C(OC(=O)C=C(C)C)C3(COC(=O)C=C(C)C)C(OC(=O)C=C(C)C)CC21C (stereo not shown) [Compound B19]
Cytotoxicity activity [1]: none

CC1(C)CC2C3=CCC4C5(C)CCC(O)C(C)(COC(=O)c6ccccc6)C5CCC4(C)C3(C)CC(OC(=O)c3ccccc3)C2(COC(=O)c2ccccc2)C(O)C1OC(=O)c1ccccc1 (stereo not shown) [Compound K13]
Cytotoxicity activity [7]: weak
Cytotoxicity activity [8]: weak
Cytotoxicity activity [9]: weak
Cytotoxicity activity [10]: weak
Cytotoxicity activity [11]: weak
Cytotoxicity activity [12]: weak
Cytotoxicity activity [13]: weak
Cytotoxicity activity [14]: weak
Cytotoxicity activity [15]: weak

CC=C(C)C(=O)OCC1(C)C(O)CCC2(C)C1CCC1(C)C2CC=C2C3CC(C)(C)C(O)C(OC(=O)C=C(C)C)C3(COC(=O)C(C)=CC)C(O)CC21C (stereo not shown) [Tig—R—Sen—3]
Cytotoxicity activity [3]: moderate

CC=C(C)C(=O)OCC1(C)C(O)CCC2(C)C1CCC1(C)C2CC=C2C3CC(C)(C)C(O)C(OC(=O)C(CC)CC)C3(CO)C(O)CC21C (stereo not shown) [Tig—Eth—6]
Cytotoxicity activity [3]: moderate

CC(=O)OCC1(C)C(OC(C)=O)CCC2(C)C1CCC1(C)C2CC=C2C3CC(C)(C)C(O)C(OC(C)=O)C3(COC(C)=O)C(O)CC21C (stereo not shown) [Compound H14]
Cytotoxicity activity [5]: weak

CC(=O)OCC1(C)C(OC(C)=O)CCC2(C)C1CCC1(C)C2CC=C2C3CC(C)(C)C(O)C(O)C3(CO)C(O)CC21C (stereo not shown) [Compound H31]
Cytotoxicity activity [5]: moderate

CC=CC(=O)OCC12C(O)CC3(C)C(=CCC4C5(C)CCC(O)C(C)(COC(=O)C(C)=CC)C5CCC43C)C1CC(C)(C)C(O)C2O (stereo not shown) [Tig—Cro—1]
Cytotoxicity activity [3]: strong

CC(C)=CC(=O)OCC1(C)C(O)CCC2(C)C1CCC1(C)C2CC=C2C3CC(C)(C)C(O)C(O)C3(COC(=O)C=C(C)C)C(OC(=O)C=C(C)C)CC21C (stereo not shown) [Compound B7]
Cytotoxicity activity [1]: moderate

CC=C(C)C(=O)OCC1(C)C(O)CCC2(C)C1CCC1(C)C2CC=C2C3CC(C)(C)C(OC(=O)C=Cc4ccccc4)C(O)C3(COC(=O)C(C)=CC)C(O)CC21C (stereo not shown) [Tig—R—Cin—2]
Cytotoxicity activity [3]: moderate

CC=C(C)C(=O)OCC1(C)C(OC(=O)CCCCC)CCC2(C)C1CCC1(C)C2CC=C2C3CC(C)(C)C(O)C(O)C3(COC(=O)CCCCC)C(O)CC21C (stereo not shown) [Tig—Hex—4]
Cytotoxicity activity [3]: moderate

CC(C)=CC(=O)OCC1(C)C(O)CCC2(C)C1CCC1(C)C2CC=C2C3CC(C)(C)C(OC(=O)C=C(C)C)C(O)C3(CO)C(O)CC21C (stereo not shown) [Compound B29]
Cytotoxicity activity [1]: moderate

CC=C(C)C(=O)OCC1(C)C(O)CCC2(C)C1CCC1(C)C2CC=C2C3CC(C)(C)C(O)C(O)C3(COC(=O)CCCCC)C(O)CC21C (stereo not shown) [Tig—Hex—1]
Cytotoxicity activity [3]: strong

CC=C(C)C(=O)OCC1(C)C(O)CCC2(C)C1CCC1(C)C2CC=C2C3CC(C)(C)C(OC(C)=O)C(O)C3(COC(C)=O)C(O)CC21C (stereo not shown) [Tig—Acy—2]
Cytotoxicity activity [3]: moderate

C=CCCC(=O)OCC1(C)C(O)CCC2(C)C1CCC1(C)C2CC=C2C3CC(C)(C)C(O)C(O)C3(CO)C(O)CC21C (stereo not shown) [Compound C1]
Cytotoxicity activity [1]: moderate

CC=C(C)C(=O)OCC1(C)C(O)CCC2(C)C1CCC1(C)C2CC=C2C3CC(C)(C)C(O)C(OC(=O)C(C)=CC)C3(CO)C(O)CC21C (stereo not shown) [Compound A30]
Cytotoxicity activity [1]: moderate

CC=CC(=O)OCC1(C)C(O)CCC2(C)C1CCC1(C)C2CC=C2C3CC(C)(C)C(O)C(O)C3(CO)C(O)CC21C (stereo not shown) [Compound I1]
Cytotoxicity activity [4]: moderate

CC=C(C)C(=O)OCC1(C)C(O)CCC2(C)C1CCC1(C)C2CC=C2C3CC(C)(C)C(OC(=O)C=Cc4ccccc4)C(O)C3(CO)C(O)CC21C (stereo not shown) [Tig—Cin—5]
Cytotoxicity activity [3]: moderate
